Measurements from patent US8835644B2, “Broad spectrum benzothiophene-nitrothiazolide and other antimicrobials” (University of Virginia Patent Foundation, priority 2009, dated 2014).
≈ marks a conversion by molar mass, not a printed value. Like-named read-outs stand apart in the source and are kept apart here. Marks after values point to notes of the source that are not given here.

Legend:
C. difficile [1] = test: MIC by agar dilution, C. difficile; format: cell-based, Clostridium difficile
Description: A standard broth dilution protocol was used in 96 well microplates containing a standard dilution of the microorganism to be tested in 100 microliters of the appropriate medium. Appropriate medium: E. coli, LB medium; Staphylococcus strains, Trypticase Soy; and for H. pylori and C. jejuni, Brain Heart Infusion. The compounds to be tested were set at 32 μg/ml in 200 microliters in well one and then serially diluted to provide a range from 32 to 0.06. The wells were scored visually at 24 h. The well where there was no growth was recorded as the MIC. […]
(§1) Representative compounds of the invention were tested in a series of assays against a series of organisms as described above. […] The organisms tested include, C. difficile, H. pylori, C. jejuni, MRSA, S. epidermidis, and E. coli. S. epidermidis and E. coli were tested in the plank and biofilm assay. A disk diffusion assay was also used for C. difficile. Direct PFOR enzyme assays were also performed. All analogues and derivatives were not tested on every organism in every type of assay (the “-” in each table means that it was not tested).

H. pylori = test: MIC testing by broth dilution, H. pylori; format: cell-based, Helicobacter pylori
In short: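 Broth dilution MIC determination against H. pylori: a standard inoculum in 100 microliters of Brain Heart Infusion medium was placed in 96 well microplates. Test compounds began at 32 μg/ml in 200 microliters in well one and were serially diluted over a 32 to 0.06 range. After 24 h, plates were scored by eye and the first well without growth was recorded as the MIC.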

C. jejuni = test: MIC testing by broth dilution, C. jejuni; format: cell-based, Campylobacter jejuni
In short: (§2)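 Values are broth-dilution MICs, defined as the well showing no growth on visual reading after 24 h; the tested range was 32 to 0.06 μg/ml, in organism-specific media (LB, Trypticase Soy, Brain Heart Infusion). The C. difficile entries come instead from anaerobic Kirby-Bauer disk zones, normalised to NTZ.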

MRSA = test: MIC testing by broth dilution, MRSA; format: cell-based, Staphylococcus aureus
In short: as §2

S. epidermidis = test: MIC testing by broth dilution, S. epidermidis plank; format: cell-based, Staphylococcus epidermidis
In short: as §2

S. epidermidis biofilm = S. epidermidis biofilm assay (activity tables); format: cell-based, Staphylococcus epidermidis; conditions: for MIC S. epidermidis Biofilm: Furan analogues table
In short: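 Overnight TSB cultures diluted to OD600 0.01 and grown static with compound (triplicate) at 37° C for 16 h; turbidity recorded for growth. Biofilm: washed wells ethanol-fixed, stained with 0.5% crystal violet, A570 read before and after 95% ethanol extraction; mean ± SD.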

E. coli = test: MIC testing by broth dilution, E. coli plank; format: cell-based, Escherichia coli
In short: as §2

E. coli biofilm = E. coli biofilm assay (activity tables); format: cell-based, Escherichia coli
In short: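 After 24 h static culture at 37 °C in wells containing NTZ, strain 042 (1:100 inoculum) biofilm was quantified by 0.5% crystal violet absorbance at 570 nm. Planktonic growth was taken from turbidity or LB plate counts as cfu/ml; all runs triplicate, reported as mean and SD.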

C. difficile [2] = test: Disk diffusion (Kirby Bower), C. difficile; format: cell-based, Clostridium difficile; conditions: for Disk Diff (%) C. difficile: Nitazoxanide = 100; for Disk Diffusion (%) C. difficile: zone of inhibited growth as relative ratio to the zone for NTZ
In short: as §2

[3] = test system: PFOR (pyruvate ferredoxin oxidoreductase); test: Direct PFOR enzyme assay; format: biochemical
Description: as §1

[4] = Furan analogues table, read-out: MIC H. pylori
[5] = Furan analogues table, read-out: MIC C. jejuni
[6] = Furan analogues table, read-out: MIC MRSA
[7] = planktonic, Furan analogues table, read-out: MIC S. epidermidis Plank
[8] = planktonic, Furan analogues table, read-out: MIC E. coli Plank
[9] = biofilm, Furan analogues table, read-out: MIC E. coli Biofilm
[10] = 2-amino-3,5-dinitrothiophene analogues table, read-out: MIC H. pylori
[11] = 2-amino-3,5-dinitrothiophene analogues table, read-out: MIC C. jejuni
[12] = 2-amino-3,5-dinitrothiophene analogues table, read-out: MIC MRSA
[13] = planktonic, 2-amino-3,5-dinitrothiophene analogues table, read-out: MIC S. epidermidis Plank
[14] = planktonic, 2-amino-3,5-dinitrothiophene analogues table, read-out: MIC E. coli Plank
[15] = 2-amino-3,5-dinitrothiophene analogues table
[16] = * biphasic initial inhibition followed by uninhibited rate, ** caused some precipitant in extract
[17] = broth dilution, Brain Heart Infusion, 24 h, read-out: MIC (μM) H. pylori
[18] = broth dilution, Brain Heart Infusion, 24 h, read-out: MIC (μM) C. jejuni
[19] = broth dilution, Trypticase Soy, 24 h, read-out: MIC (μM) MRSA
[20] = broth dilution, Trypticase Soy, 24 h, read-out: MIC (μM) S. epidermidis Plank
[21] = broth dilution, LB medium, 24 h, read-out: MIC (μM) E. coli Plank
[22] = biofilm, read-out: MIC (μM) E. coli Biofilm

| Structure (SMILES) | MIC (H. pylori; [4]) [µM] | MIC (C. jejuni; [5]) [µM] | MIC (MRSA; [6]) [µM] | MIC (S. epidermidis; [7]) [µM] | MIC S. epidermidis Biofilm (S. epidermidis biofilm) [µM] | MIC (E. coli; [8]) [µM] | MIC (E. coli biofilm; [9]) [µM] | MIC (H. pylori; [17]) [µM] | MIC (C. jejuni; [18]) [µM] | MIC (MRSA; [19]) [µM] | MIC (S. epidermidis; [20]) [µM] | MIC (μM) S. epidermidis Biofilm (S. epidermidis biofilm) [µM] | MIC (E. coli; [21]) [µM] | PFOR inhibition relative to nitazoxanide (=100) [3] | other results |
| --- | --- | --- | --- | --- | --- | --- | --- | --- | --- | --- | --- | --- | --- | --- | --- |
| O=C(Nc1ncc([N+](=O)[O-])s1)c1ccc([N+](=O)[O-])o1 [VPC16b1007] | 21.1 (≈ 6 µg/mL) | 7.0 (≈ 1.99 µg/mL) | 112.6 (≈ 32 µg/mL) | 28.1 (≈ 7.99 µg/mL) | 56.3 (≈ 16 µg/mL) | 14.1 (≈ 4.01 µg/mL) | 26.4 (≈ 7.5 µg/mL) |  |  |  |  |  |  |  | MIC (C. difficile [1]; Furan analogues table, read-out: MIC C. difficile): 28.2 µM (≈ 8.01 µg/mL); Disk Diff (%) C. difficile (C. difficile [2]; Furan analogues table): 102 ± 8% |
| O=C(Nc1sc([N+](=O)[O-])cc1[N+](=O)[O-])c1cccc(C(F)(F)F)c1 [VPC16b1092] |  |  |  |  |  |  |  |  |  |  |  |  |  |  | MIC (H. pylori; [10]): 0.5 µM (≈ 0.181 µg/mL); MIC (C. jejuni; [11]): 2.1 µM (≈ 0.759 µg/mL); MIC (MRSA; [12]): 1.4 µM (≈ 0.506 µg/mL); MIC (S. epidermidis; [13]): 0.2 µM (≈ 0.0723 µg/mL); MIC (E. coli; [14]): 88.6 µM (≈ 32 µg/mL); Disk Diff (%) C. difficile (C. difficile [2]; [15]): 59%; PFOR inhibition relative to nitazoxanide (=100) [3, 16]: 87** % |
| O=C(Nc1sc([N+](=O)[O-])cc1[N+](=O)[O-])c1cccs1 [VPC16b1093, N-(3,5-Dinitrothiophen-2-yl)thiophene-2-carboxamide] |  |  |  |  |  |  |  |  |  |  |  |  |  |  | MIC (H. pylori; Helicobacter pylori, read-out: MIC H. pylori): 2.5 µM (≈ 0.748 µg/mL); MIC (C. jejuni; Campylobacter jejuni, read-out: MIC C. jejuni): 1 µM (≈ 0.299 µg/mL); MIC (MRSA; Staphylococcus aureus, MRSA, read-out: MIC MRSA): 26.7 µM (≈ 7.99 µg/mL); MIC (S. epidermidis; Staphylococcus epidermidis, read-out: MIC S. epidermidis Plank): 13.4 µM (≈ 4.01 µg/mL); MIC (E. coli; Escherichia coli, read-out: MIC E. coli Plank): 107 µM (≈ 32 µg/mL); Disk Diff (%) C. difficile (C. difficile [2]; [15]): 43%; PFOR inhibition relative to nitazoxanide (=100) [3, 16]: 143% |
| O=C(Nc1sc([N+](=O)[O-])cc1[N+](=O)[O-])c1ccoc1 [VPC16b1094] |  |  |  |  |  |  |  |  |  |  |  |  |  |  | MIC (H. pylori; [10]): 2.7 µM (≈ 0.765 µg/mL); MIC (C. jejuni; [11]): 0.4 µM (≈ 0.113 µg/mL); MIC (MRSA; [12]): 56.5 µM (≈ 16 µg/mL); MIC (S. epidermidis; [13]): 28.2 µM (≈ 7.99 µg/mL); MIC (E. coli; [14]): 113.0 µM (≈ 32 µg/mL); Disk Diff (%) C. difficile (C. difficile [2]; [15]): 53%; PFOR inhibition relative to nitazoxanide (=100) [3, 16]: 126* % |
| N#Cc1ccc(C(=O)Nc2ncc([N+](=O)[O-])s2)cc1 [VPC161086] |  |  |  |  |  |  |  | 9.1 (≈ 2.5 µg/mL) | 43.8 (≈ 12 µg/mL) | 14.6 (≈ 4 µg/mL) | 21.9 (≈ 6.01 µg/mL) | 4.6 (≈ 1.26 µg/mL) | 87.5 (≈ 24 µg/mL) | 74% | MIC (E. coli biofilm; [22]): 58.3 µM (≈ 16 µg/mL) |
| O=C(Nc1ncc([N+](=O)[O-])s1)c1ccco1 [VPC161124] | 1.0 (≈ 0.239 µg/mL) | 8.4 (≈ 2.01 µg/mL) | 50.2 (≈ 12 µg/mL) | 66.9 (≈ 16 µg/mL) | 66.9 (≈ 16 µg/mL) | 133.8 (≈ 32 µg/mL) | 33.4 (≈ 7.99 µg/mL) |  |  |  |  |  |  |  | Disk Diff (%) C. difficile (C. difficile [2]; Furan analogues table): 100%; PFOR inhibition relative to nitazoxanide (=100) ([3]; Furan analogues table): 82% |
| O=C(Nc1ncc([N+](=O)[O-])s1)c1cc2ccccc2o1 [VPC161144] | 0.6 (≈ 0.174 µg/mL) | 110.6 (≈ 32 µg/mL) | 57.0 (≈ 16.5 µg/mL) | 110.6 (≈ 32 µg/mL) | 110.6 (≈ 32 µg/mL) | 110.6 (≈ 32 µg/mL) | 110.6 (≈ 32 µg/mL) |  |  |  |  |  |  |  | PFOR inhibition relative to nitazoxanide (=100) ([3]; Furan analogues table): 70% |
| O=C(Nc1ncc([N+](=O)[O-])s1)c1cc(Br)c(Br)o1 [VPC161164] | 2.8 (≈ 1.11 µg/mL) | 20.2 (≈ 8.02 µg/mL) | 3.8 (≈ 1.51 µg/mL) | 15.1 (≈ 5.99 µg/mL) | 20.2 (≈ 8.02 µg/mL) | 60.5 (≈ 24 µg/mL) | 40.3 (≈ 16 µg/mL) |  |  |  |  |  |  |  | PFOR inhibition relative to nitazoxanide (=100) ([3]; Furan analogues table): 56% |
| O=C(Nc1ncc([N+](=O)[O-])s1)c1ccc(F)cc1 [VPC161167, 4-Fluoro-N-(5-nitrothiazol-2-yl)benzamide] |  |  |  |  |  |  |  |  |  |  |  | 29.9 (≈ 7.99 µg/mL) |  | 99% | MIC (H. pylori; Helicobacter pylori, 24 h, read-out: MIC (μM) H. pylori): 0.9 µM (≈ 0.241 µg/mL); MIC (C. jejuni; Campylobacter jejuni, 24 h, read-out: MIC (μM) C. jejuni): 2.8 µM (≈ 0.748 µg/mL); MIC (MRSA; Staphylococcus aureus, MRSA, 24 h, read-out: MIC (μM) MRSA): 8.4 µM (≈ 2.24 µg/mL); MIC (S. epidermidis; Staphylococcus epidermidis, 24 h, read-out: MIC (μM) S. epidermidis Plank): 15 µM (≈ 4.01 µg/mL); MIC (E. coli; Escherichia coli, 24 h, read-out: MIC (μM) E. coli Plank): 120 µM (≈ 32 µg/mL); MIC (E. coli biofilm; Escherichia coli, read-out: MIC (μM) E. coli Biofilm): 120 µM (≈ 32 µg/mL); Disk Diffusion (%) C. difficile (C. difficile [2]): 89% |
| O=C(Nc1ncc([N+](=O)[O-])s1)c1ccc(C(=O)C(F)(F)F)cc1 [VPC161175] |  |  |  |  |  |  |  | 4.3 (≈ 1.48 µg/mL) | 69.5 (≈ 24 µg/mL) | 92.7 (≈ 32 µg/mL) | 92.7 (≈ 32 µg/mL) | 92.7 (≈ 32 µg/mL) | 92.7 (≈ 32 µg/mL) |  | MIC (C. difficile [1]; agar dilution, anaerobic, Wilkins Chalgrin agar, read-out: MIC (μM) C. difficile): 23.2 µM (≈ 8.01 µg/mL); MIC (E. coli biofilm; [22]): 92.7 µM (≈ 32 µg/mL) |
| O=C(C=Cc1ccccc1)Nc1ncc([N+](=O)[O-])s1 [VPC161200] |  |  |  |  |  |  |  | 0.3 (≈ 0.0826 µg/mL) | 2.7 (≈ 0.743 µg/mL) | 116.2 (≈ 32 µg/mL) | 29.1 (≈ 8.01 µg/mL) | 14.5 (≈ 3.99 µg/mL) | 116.2 (≈ 32 µg/mL) | 93% | MIC (E. coli biofilm; [22]): 116.2 µM (≈ 32 µg/mL) |
| O=C(Nc1nc(Cl)c([N+](=O)[O-])s1)c1ccccc1 [VPC162087] |  |  |  |  |  |  |  | 8.8 (≈ 2.5 µg/mL) | 7.1 (≈ 2.01 µg/mL) | 112.8 (≈ 32 µg/mL) | 35.2 (≈ 9.99 µg/mL) |  | 112.8 (≈ 32 µg/mL) | 107% | Disk Diffusion (%) C. difficile (C. difficile [2]): 66% |
| O=C(Nc1nc(Cl)c([N+](=O)[O-])s1)c1cccc(C(F)(F)F)c1 [VPC162088] |  |  |  |  |  |  |  | 5.7 (≈ 2 µg/mL) | 34.1 (≈ 12 µg/mL) | 11.4 (≈ 4.01 µg/mL) | 8.5 (≈ 2.99 µg/mL) |  | 91.0 (≈ 32 µg/mL) | 49** % | Disk Diffusion (%) C. difficile (C. difficile [2]): 76% |
